Source: publication PMC5642494 (Oncotarget, 2017)
Where two headings read alike, the source gives them in different places.

System: H3K9me3
Test: Hypermethylation of histone H3 at lysine 9 (H3K9me3), EFM-19
Assay type: cell-based, human
Settings: 2 DT, n = 1, read-out: EC50 H3K9me3 levels
Procedure: Relative IC50/EC50 values were determined by curve fitting to a four parameter logistic equation: Y = bottom + ((top-bottom)/ (1+exp(HillSlope*(X – LnIC50)), where X is the natural log of dose/concentration, Y is response, decreasing as X increases, top and bottom are plateaus in the same units as Y, lnIC50 is the natural log of potency, in the same log units as X, and HillSlope measures the steepness of the curve. Data were plotted using GraphPad Prism.
BioResearch) where indicated; the dates of acquisition and in an Acumen Explorer Ex3 (TTP Labtech), raw data testing are listed in parentheses: ZR-75-1; T-47D; MDA- were analyzed with Cellista software and then further MB-468; HCC70; BT-549; BT-20; MDA-MB-231; MDA- normalized in Excel against the values obtained for cells MB-175-VII, HCC-1937; MDA-MB-415. treated with 2 µM BEZ235, or vehicle (0.2% v/v DMSO); data were graphed using GraphPad Prism®. Images were SA-β-galactosidase immunocytochemical labeling taken by fluorescent microscopy using a Leica DMiL. […]
SA-β-gal Cell samples were lysed after treatment with expression was determined using the Senescence Cells 100 µL lysis buffer and transferred to a 96-well plate. […]
(BSA) (Invitrogen #15260-037) for 1 hour at 25°C. EdU Samples were analyzed by LC─MS/MS under the detection was performed using the Click-iT High Content conditions described below. […]

EC50 (EFM-19): 0.023 µM
EC50 (Homo sapiens, EFM-19, EFM-19): 0.0232 µM
Compound: CCN1CCN(Cc2ccc(Nc3ncc(F)c(-c4cc(F)c5nc(C)n(C(C)C)c5c4)n3)nc2)CC1 [abemaciclib, Abemaciclib]
